Laboratory results taken from the NIST ThermoML archive (doi:10.1021/je901020a).

Experiments:
[1] = refractive index (Na D-line) (dimensionless); xn = mol fraction of the nth substance listed; settings: 101 kPa, Liquid, Standard Abbe refractometry
[2] = xn = mol fraction of the nth substance listed; settings: 101 kPa, Liquid; for speed of sound: Pulse-echo method

C1CCCC1 [cyclopentane] + Cc1cccc(C)c1
Settings | mass density, [2] [kg/m3] | refractive index, [1] | speed of sound, [2] [m/s]
298.15 K, x1 = 0.0391 | 856.1 | 1.49183 | 1315
298.15 K, x1 = 0.0908 | 851.1 | 1.48818 | 1308
298.15 K, x1 = 0.1894 | 841.2 | 1.48065 | 1296
298.15 K, x1 = 0.2859 | 831.2 | 1.47341 | 1284
298.15 K, x1 = 0.3868 | 820.1 | 1.46504 | 1272
298.15 K, x1 = 0.4808 | 809.2 | 1.45745 | 1260
298.15 K, x1 = 0.6394 | 789.8 | 1.44242 | 1241
298.15 K, x1 = 0.6923 | 782.9 | 1.43668 | 1235
298.15 K, x1 = 0.7909 | 769.7 | 1.42686 | 1224
298.15 K, x1 = 0.8952 | 755 | 1.41504 | 1214
298.15 K, x1 = 0.9514 | 746.9 | 1.40888 | 1208
298.15 K, x1 = 1 | 740 | 1.40292 | 1204
313.15 K, x1 = 0.0431 | 842.9 | 1.48387 | 1253
313.15 K, x1 = 0.0812 | 839.2 | 1.48096 | 1248
313.15 K, x1 = 0.1859 | 828.6 | 1.47303 | 1234
313.15 K, x1 = 0.2864 | 818 | 1.46521 | 1220
313.15 K, x1 = 0.3348 | 812.6 | 1.46128 | 1213
313.15 K, x1 = 0.4741 | 796.4 | 1.44893 | 1194
313.15 K, x1 = 0.5747 | 784.1 | 1.43989 | 1181
313.15 K, x1 = 0.6933 | 768.8 | 1.42834 | 1166
313.15 K, x1 = 0.7932 | 755.2 | 1.4181 | 1153
313.15 K, x1 = 0.8961 | 740.5 | 1.4067 | 1141
313.15 K, x1 = 0.9472 | 733 | 1.40122 | 1135
313.15 K, x1 = 1 | 725 | 1.39456 | 1130
